Results on three compounds are retold here after ChEMBL document CHEMBL3576768, “α-Glucosidase Inhibitors from a Xylaria feejeensis Associated with Hintonia latiflora” (J Nat Prod, 2015).

Assay [1] is described as follows: (§1) Inhibition of Saccharomyces cerevisiae alpha-glucosidase using pNPG as substrate preincubated for 10 mins followed by substrate addition measured after 20 mins by spectrophotometric analysis.
The subject of assay [2] is Saccharomyces cerevisiae. The assay is described as §1.

In general, IC50 refers to the concentration that gives 50% inhibition. Higher therefore signals lower potency. Compound `C[C@@H]1OC(=O)c2c(O)cccc2[C@H]1O` registered an IC50 in assay [1] of 441 µM. For the same compound, in assay [2], the inhibition result was “Dose-dependent effect”.
The like results for `C[C@@H]1OC(=O)c2c(O)cccc2[C@@H]1O` were, in that order, 549 µM and “Dose-dependent effect”.
On to `C[C@H]1O[C@H](O[C@H]2[C@H](O)[C@@H](O)[C@@H](O[C@H]3[C@H](O)[C@@H](O)C(O)O[C@@H]3CO)O[C@@H]2CO)[C@H](O)[C@@H](O)[C@@H]1N[C@H]1C=C(CO)[C@@H](O)[C@H](O)[C@H]1O` (stereo not given in full) [ACARBOSE], for which the midpoint of inhibition in assay [1], the IC50, lay at 545 µM.
